Data from patent US9012489B2, “Phenyl-3-aza-bicyclo[3.1.0]hex-3-yl-methanones and the use thereof as medicament” (Boehringer Ingelheim International GmbH, priority 2011, dated 2015).

molecular target: T1, GlyT1 transporter (Homo sapiens, UniProt P48067); assay: GlyT1 assay: 3H-glycine uptake into SK-N-MC cells (Cytostar-T format); format: cell-based; details: glycine uptake in human SK-N-MC cells endogenously expressing GlyT1; 500 nM glycine, 1% DMSO, signal recorded over 60 min
T1 construct: endogenously expressing the GlyT1 transporter; host or cells: SK-N-MC human neuroblastoma cells
T1 sequence (P48067 1-706): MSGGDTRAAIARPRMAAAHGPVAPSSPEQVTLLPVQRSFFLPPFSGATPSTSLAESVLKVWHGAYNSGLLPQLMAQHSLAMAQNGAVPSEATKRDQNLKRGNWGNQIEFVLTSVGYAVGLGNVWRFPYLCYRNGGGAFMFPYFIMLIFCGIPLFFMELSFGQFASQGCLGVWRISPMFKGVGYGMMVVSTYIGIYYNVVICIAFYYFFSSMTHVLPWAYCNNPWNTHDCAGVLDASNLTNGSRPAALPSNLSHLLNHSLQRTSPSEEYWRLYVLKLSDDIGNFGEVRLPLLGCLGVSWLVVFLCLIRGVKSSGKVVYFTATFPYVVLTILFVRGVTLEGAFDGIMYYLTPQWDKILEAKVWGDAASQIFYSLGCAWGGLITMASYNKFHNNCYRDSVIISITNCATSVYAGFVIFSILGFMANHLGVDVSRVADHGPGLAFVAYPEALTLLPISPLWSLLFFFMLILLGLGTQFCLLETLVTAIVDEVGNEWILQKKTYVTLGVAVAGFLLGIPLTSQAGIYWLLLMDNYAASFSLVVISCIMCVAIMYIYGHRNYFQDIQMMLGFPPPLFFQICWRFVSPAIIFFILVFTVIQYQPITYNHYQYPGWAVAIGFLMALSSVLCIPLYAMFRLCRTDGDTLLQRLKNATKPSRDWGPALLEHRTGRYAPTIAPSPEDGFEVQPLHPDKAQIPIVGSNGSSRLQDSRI
From the text: Cells expressing either endogenously the GlyT1 transporter like JAR cells (human placental choriocarcinoma cells; e.g. WO 2008/002583) or SK-N-MC cells (human neuroblastoma cells; Depoortere et al., 2005. Neuropsychopharmacology 30:1963-1985) or primary neurons or cells which have been transfected with a plasmid encoding the cDNA of a functional GlyT1 transporter and stably or transiently express GlyT1 (e.g. WO 2006/08200) can be used to monitor glycine uptake in cells. Different protocols for determination of the glycine uptake into the cells described above can be applied in order to identify and rank compounds which interfere with glycine uptake in the selected cell.
Compounds outlined in the examples below were characterized using human SK-N-MC cells (ATCC number HTB-10) endogenously expressing the GlyT1 transporter which is responsible for the uptake of glycine into these cells and the uptake of glycine into these cells is monitored using the Cytostar-T assay format (GE Healthcare, RPNQ0162) which is based on the radioactive glycine taken up by the cells and brought into proximity with the scintillant contained within the base of the plate. The radioactive decay is converted to a light signal based on the integration of the scintillation matrix into the assay plate. The uptake is recorded as kinetic and the slope of the measured counts over time is used to calculate IC50.
In detail, SK-N-MC cells are seeded into 96-well Cytostar-T assay plates at a density of 200,000 cells/well and grown for 16-18 hours to confluence in growth medium as recommended by ATCC. Before starting the assay, cells are washed once with HBSS (Hank's buffered salt solution; Sigma, H8264) cont. 5 mM alanine (referred in here as HBSS/Ala) and afterwards the following reagents are added: • 1. 80 μl/well HBSS/Ala • 2. 20 μl/well of HBSS/Ala containing 6× the concentration of compound in 6% DMSO • 3. approx. 5-10 min incubation • 4. 20 μl/well 3 μM glycine (^3H-glycine (Perkin Elmer, NET004001MC, specific activity: 52 Ci/mmol; diluted 1:1 with unlabelled glycine) in HBSS/Ala.
In the final assay, glycine concentration is 500 nM (250 nM derived from the ^3H-glycine Perkin Elmer, 250 nM unlabelled glycine), DMSO concentration is 1%.
The assay plate is immediately after addition of the ^3H-glycine placed into a Micro-Beta Counter (Perkin Elmer) and the signal is recorded over 60 min.
To calculate uptake, the slope in the linear range of the kinetics is determined using GraphPadPrism and for the different slopes at the selected concentrations IC50 are calculated by curve fitting using the software GraphPadPrism.
Maximal glycine uptake in every experiment is determined by incubation of SK-N-MC cells with substrate but without inhibitor. Unspecific uptake of glycine by the cells is determined by incubating the cells with substrate and a reference GlyT1 inhibitor e.g. 10 μM RG-1678 (Pinard et al., 2010, J. Med. Chem. 53(12):4603-14).
Compounds are diluted from 10 mM stocks and in general, for IC50 determination 8 compound concentrations are used.

| Structure (SMILES) | IC50 |
| --- | --- |
| C[C@H](Oc1ccc(S(C)(=O)=O)cc1C(=O)N1CC2CC2(c2noc(C3CC(F)(F)C3)n2)C1)C(F)(F)F (mixture of isomers) [Example 13, {1-[5-(3,3-Difluoro-cyclobutyl)-[1,2,4]oxadiazol-3-yl]-3-aza-bicyclo[3.1.0]hex-3-yl}-[5-methanesulfonyl-2-(2,2,2-trifluoro-1-methyl-ethoxy)-phenyl]-methanone] | 9 nM |
| C[C@H](Oc1ccc(S(C)(=O)=O)cc1C(=O)N1CC2CC2(c2ncc(C(F)(F)F)o2)C1)C(F)(F)F (mixture of isomers) [Example 131, [5-Methanesulfonyl-2-(2,2,2-trifluoro-1-methyl-ethoxy)-phenyl]-[1-(5-trifluoromethyl-oxazol-2-yl)-3-aza-bicyclo[3.1.0]hex-3-yl]-methanone] | 19 nM |
| C[C@H](Oc1ccc(S(C)(=O)=O)cc1C(=O)N1CC2CC2(c2cn3ccccc3n2)C1)C(F)(F)F (mixture of isomers) [Example 24, (1-Imidazo[1,2-a]pyridin-2-yl-3-aza-bicyclo[3.1.0]hex-3-yl)-[5-methanesulfonyl-2-(2,2,2-trifluoro-1-methyl-1-ethoxy)-phenyl]-methanone] | 911 nM |
| C[C@H](Oc1ccc(S(C)(=O)=O)cc1C(=O)N1CC2CC2(c2cncc(C(F)(F)F)c2)C1)C(F)(F)F (mixture of isomers) [Example 53, [5-Methanesulfonyl-2-(2,2,2-trifluoro-1-methyl-ethoxy)-phenyl]-[1-(5-trifluoromethyl-pyridin-3-yl)-3-aza-bicyclo[3.1.0]hex-3-yl]-methanone] | 70 nM |
| C[C@@H](Oc1ccc(S(C)(=O)=O)cc1C(=O)N1CC2CC2(c2nnc(C(F)(F)F)o2)C1)C(F)(F)F (single isomer, unassigned) [Example 124, [5-Methanesulfonyl-2-(2,2,2-trifluoro-1-methyl-ethoxy)-phenyl]-[1-(5-trifluoromethyl-[1,3,4]oxadiazol-2-yl)-3-aza-bicyclo[3.1.0]hex-3-yl]-methanone] | 503 nM |
| Cc1c(C23CC2CN(C(=O)c2cc(S(C)(=O)=O)ccc2O[C@@H](C)C(F)(F)F)C3)noc1C(F)(F)F (single isomer, unassigned) [Example 165] | 394 nM |
| C[C@H](Oc1ccc(S(C)(=O)=O)cc1C(=O)N1CC2CC2(c2csc(C(F)(F)F)n2)C1)C(F)(F)F (single isomer, unassigned) [Example 28, [5-Methanesulfonyl-2-(2,2,2-trifluoro-1-methyl-ethoxy)-phenyl]-[1-(2-trifluoromethyl-thiazol-4-yl)-3-aza-bicyclo[3.1.0]hex-3-yl]-methanone] | 1440 nM |
| C[C@H](Oc1ccc(S(C)(=O)=O)cc1C(=O)N1CC2CC2(c2noc(C3CC(F)(F)C3)n2)C1)C(F)(F)F (single isomer, unassigned) [Example 60] | 372 nM |
| C[C@H](Oc1ccc(S(C)(=O)=O)cc1C(=O)N1CC2CC2(c2csc(C(F)(F)F)n2)C1)C(F)(F)F (mixture of isomers) [Example 26, [5-Methanesulfonyl-2-(2,2,2-trifluoro-1-methyl-ethoxy)-phenyl]-[1-(2-trifluoromethyl-thiazol-4-yl)-3-aza-bicyclo[3.1.0]hex-3-yl]-methanone] | 8 nM |
| Cc1nnc(C23CC2CN(C(=O)c2cc(S(C)(=O)=O)ccc2O[C@@H](C)C(F)(F)F)C3)o1 (mixture of isomers) [Example 38, [5-Methanesulfonyl-2-(2,2,2-trifluoro-1-methyl-ethoxy)-phenyl]-[1-(5-methyl-[1,3,4]oxadiazol-2-yl)-3-aza-bicyclo[3.1.0]hex-3-yl]-methanone] | 89 nM |
| C[C@@H](Oc1ccc(S(C)(=O)=O)cc1C(=O)N1CC2CC2(c2nc(C(F)(F)F)co2)C1)C(F)(F)F (single isomer, unassigned) [Example 114, [5-Methanesulfonyl-2-(2,2,2-trifluoro-1-methyl-ethoxy)-phenyl]-[1-(4-trifluoromethyl-oxazol-2-yl)-3-aza-bicyclo[3.1.0]hex-3-yl]-methanone] | 171 nM |
| C[C@H](Oc1ccc(S(C)(=O)=O)cc1C(=O)N1CC2CC2(c2ncccn2)C1)C(F)(F)F (mixture of isomers) [Example 14, [5-Methanesulfonyl-2-(2,2,2-trifluoro-1-methyl-ethoxy)-phenyl]-(1-pyrimidin-2-yl-3-aza-bicyclo[3.1.0]hex-3-yl)-methanone] | 67 nM |
| Cc1c(C23CC2CN(C(=O)c2cc(S(C)(=O)=O)ccc2O[C@H](C)C(F)(F)F)C3)noc1C(F)(F)F (mixture of isomers) [Example 160] | 8 nM |
| C[C@H](Oc1ccc(S(C)(=O)=O)cc1C(=O)N1CC2CC2(c2noc(C3(C)COC3)n2)C1)C(F)(F)F (mixture of isomers) [Example 62, [5-Methanesulfonyl-2-(2,2,2-trifluoro-1-methyl-ethoxy)phenyl]-{1-[5-(3-methyl-oxetan-3-yl)-[1,2,4]oxadiazol-3-yl]-3-aza-bicyclo[3.1.0]hex-3-yl}-methanone] | 10 nM |
| C[C@H](Oc1ccc(S(C)(=O)=O)cc1C(=O)N1CC2(C)CC2(c2noc(C(F)(F)F)n2)C1)C(F)(F)F (single isomer, unassigned) [Example 158, [5-Methanesulfonyl-2-(2,2,2-trifluoro-1-methyl-ethoxy)-phenyl]-[1-methyl-5-(5-trifluoromethyl-[1,2,4]oxadiazol-3-yl)-3-aza-bicyclo[3.1.0]hex-3-yl]-methanone] | 85 nM |
| Cc1cnc(C23CC2CN(C(=O)c2cc(S(C)(=O)=O)ccc2O[C@@H](C)C(F)(F)F)C3)o1 (single isomer, unassigned) [Example 23, [5-Methanesulfonyl-2-(2,2,2-trifluoro-1-methyl-ethoxy)-phenyl]-[1-(5-methyl-oxazol-2-yl)-3-aza-bicyclo[3.1.0]hex-3-yl]-methanone] | 181 nM |
| C[C@@H](Oc1ccc(S(C)(=O)=O)cc1C(=O)N1CC2CC2(c2nc(C(F)(F)F)no2)C1)C(F)(F)F (mixture of isomers) [Example 37, [5-Methanesulfonyl-2-(2,2,2-trifluoro-1-methyl-ethoxy)-phenyl]-[1-(3-trifluoromethyl-[1,2,4]oxadiazol-5-yl)-3-aza-bicyclo[3.1.0]hex-3-yl]-methanone] | 34 nM |
| C[C@H](Oc1ccc(S(C)(=O)=O)cc1C(=O)N1CC2CC2(c2noc(C(C)(C)C(F)(F)F)n2)C1)C(F)(F)F (mixture of isomers) [Example 12, [5-Methanesulfonyl-2-(2,2,2-trifluoro-1-methyl-ethoxy)-phenyl]-{1-[5-(2,2,2-trifluoro-1,1-dimethyl-ethyl)-[1,2,4]oxadiazol-3-yl]-3-aza-bicyclo[3.1.0]hex-3-yl}-methanone] | 18 nM |
| CCS(=O)(=O)c1ccc(O[C@H](C)C(F)(F)F)c(C(=O)N2CC3CC3(c3noc(C(F)(F)F)n3)C2)c1 (single isomer, unassigned) [Example 94, [5-Ethanesulfonyl-2-(2,2,2-trifluoro-1-methyl-ethoxy)-phenyl]-[1-(5-trifluoromethyl-[1,2,4]oxadiazol-3-yl)-3-aza-bicyclo[3.1.0]hex-3-yl]-methanone] | 2910 nM |
